The test system of one experiment is CT26 tumor cells. Nature of the experiment: In vivo anti-tumor efficacy, CT26 tumor volumes (Example 11). Also on record: species or system BALB/C mice. Particulars: single intratumoral dose. The protocol:
Mice were subcutaneously implanted with 3×10^5 CT26 tumor cells in the left and right flanks. […] Hydrogels were administered as suspensions in PBST buffer. Following treatment initiation, anti-tumor efficacy was assessed by determination of tumor volumes at various time points from tumor size measurements with a caliper. Tumor volumes were calculated according to the formula: […]
where L is the length of the tumor and W the width (both in mm). Mice were removed from the study once tumors were greater than 1500 mm^3.

For a further experiment, the system named is Tnf. Nature of the experiment: PBMC gene expression (qPCR, 6 hours post-treatment): Tnf (Example 17). The experiment is classed as in vivo, BALB/C mice. The method, then: (§1) Hydrogels were administered as suspensions in PTP buffer. […] Tumors were excised, weighed and snap frozen.
(§2) For PBMC isolations, approximately 600 μl of whole blood was collected via cardiac puncture. The collected whole blood from each individual mouse was diluted with a 1:1 ratio of pre-warmed PBS supplemented with 2% Fetal Bovine Serum (FBS). Then an equal volume of Histopaque-1083 was added to a new sterile 15 mL conical tube, where the diluted whole blood was layered over the Histopaque-1083. The mixture was then centrifuged at 400 g for 30 minutes. […]
(§3) Lysates from untreated control samples and 6 hour treated samples were thawed and RNA was isolated using the RNeasy Mini Kit (QIAGEN) following manufacturer's recommendations. […] RNA concentrations were measured using a NanoDrop (ThermoFisher) and then adjusted to […] with RNase-free water. RNA quality was assessed using a NanoDrop (ThermoFisher). […] 200 ng of cDNA was used for quantitative PCR using the RT^2 SYBR Green ROX qPCR Master mix (2×) kit (QIAGEN) following manufacturer's recommendations. […]
(§4) Cycle thresholds (CT) were collected using a 384-well platform ABI-7900H real-time qPCR system (Applied Biosystems). […] 2^ΔΔCT values were calculated with the following formula: […]
(§5) For each gene, 3 technical replicates were analyzed per biological replicate. Undetermined technical replicate CT values were recorded as zero ΔCT values. […]

The next experiment relates to Cxcl10. Nature of the experiment: PBMC gene expression (qPCR, 6 hours post-treatment): Cxcl10 (Example 17). The format is in vivo, BALB/C mice. The protocol: as §1, §2, §3, §4, §5
The next experiment has as its system Ly-6C+ CD8+ T cells. The experiment can be described thus: Flow cytometry of tumor draining lymph nodes: frequency of Ly-6C+ T cells of CD8+ T cells (Example 15). The experiment is classed as in vivo, BALB/C mice. Particulars: 7 days after randomization. The method, then: (§6) Hydrogels were administered as suspension in PTP buffer. Some cohorts were further treated with 20 μg human IL-2 (Peprotech, Rocky Hill, N.J.), intraperitoneally (I.P.), twice a day for 5 days. Mice were sacrificed 7 days after randomization (D0). Following sacrifice, tumor draining lymph nodes were isolated from both flanks and were dissociated mechanically to generate a single cell suspension at a cell concentration of 1×10^6 cells per sample. Cell suspensions were centrifuged at 300 g for 5 minutes. Supernatants were discarded and cells were resuspended in FACS buffer with 1 μg/ml Fc-Block and incubated at 4° C. for 10 minutes in the dark. Surface marker antibody mixtures (antibody concentration: 10 μg/mL) in FACS buffer were added to each sample and samples were incubated in the dark at 4° C. for 30 minutes. Cells were centrifuged at 300 g for 5 minutes and supernatants were discarded. Cells were washed and then resuspended with FACS buffer before cytometer collection.
(§7) After collection, FACS data was analyzed using FlowJo Version 10.6.1. Compensation was digitally adjusted using single antibody-stained beads. Samples with less than 90% viability, as determined by LiveDead cell staining, were excluded from the analysis. […]

For another experiment, the system named is CD4+ T cells. Nature of the experiment: Flow cytometry of tumor draining lymph nodes: frequency of CD4+ T cells of CD3+ T cells (Example 15). The experiment is classed as in vivo, BALB/C mice. Particulars: 7 days after randomization. The method, then: as §6, §7
Another experiment has as its system Ccl2. The experiment can be described thus: PBMC gene expression (qPCR, 6 hours post-treatment): Ccl2 (Example 17). The format is in vivo, BALB/C mice. The protocol: as §1, §2, §3, §4, §5

From US20220054477A1, “INDUCTION OF SUSTAINED LOCAL INFLAMMATION” (Ascendis Pharma Oncology Division A/S, priority 2019, published 2022) come the findings set out here.

Consider Resiquimod [Compound 4], for which the “Absolute tumor volume, Mean” value is given as 88.82 mm^3 in the experiment with CT26 tumor cells (day 0 post-treatment); 108.44 mm^3 with CT26 tumor cells (day 2 post-treatment); 128.42 mm^3 with CT26 tumor cells (day 4 post-treatment); 316.07 mm^3 in the experiment on CT26 tumor cells (day 7 post-treatment); 549.72 mm^3 in the experiment on CT26 tumor cells (day 9 post-treatment); 957.90 mm^3 in the experiment on CT26 tumor cells (day 11 post-treatment). In addition, the “Absolute tumor volume, Mean” value in the experiment on CT26 tumor cells (day 14 post-treatment) was determined as 1220.96 mm^3. For the same substance, the “Tnf Mean (2^ΔΔCT)” value with Tnf is listed as 4.64. In the experiment on Tnf (ratio of 4 to 13i), the “Tnf Fold change (4/13i)” value is reported as 4.45. The “Cxl10 Mean (2^ΔΔCT)” value in the experiment on Cxcl10 was found to be 45.38. Moreover, the “Cxl10 Fold change (4/13i)” value in the experiment on Cxcl10 (ratio of 4 to 13i) is 21.41. Also, the “Frequency of Ly-6C+ T cells of CD8+ T cells, Mean” value stood at 53.7% with Ly-6C+ CD8+ T cells (injected right flank tumor) and 48% in the experiment with Ly-6C+ CD8+ T cells (uninjected left flank tumor). Besides, the “Frequency of CD4+ T cells of CD3+ T cells, Mean” value in the experiment with CD4+ T cells (injected right flank tumor) was found to be 69.1%; in the experiment with CD4+ T cells (uninjected left flank tumor) it was 69.25%. In addition, the “Ccl2 Mean (2^ΔΔCT)” value in the experiment with Ccl2 is recorded as 6.75. Besides, the “Ccl2 Fold change (4/13i)” value with Ccl2 (ratio of 4 to 13i) stood at 2.82.
